Test results from patent US20240199623A1 (ILDONG PHARMACEUTICAL CO., LTD., priority 2020, published 2024).

What follows are compounds tested against human wild type-CFTR (Homo sapiens, UniProt P13569) (assay: Cell-based YFP assay). Details: CHO-K1 cells expressing human wild type-CFTR and YFP-H148Q/I152L; forskolin 20 μM = 100% activity; read-out: Cell-based YFP Assay (EC50) Concentration Range.
Set-up: expressed in transfected cells; host or cells: CHO-K1 (Chinese hamster ovary)
Outline: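 CHO-K1 cells co-expressing human wild-type CFTR and YFP-H148Q/I152L halide sensor, grown 48 h at 37 °C, then in PBS. YFP quenching by I⁻ influx read at 37 °C after adding 140 mM I⁻ solution, sampled every 0.4 s for 14 s. Triplicates averaged; EC50 fitted.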

human wild type-CFTR, sequence (P13569 whole entry): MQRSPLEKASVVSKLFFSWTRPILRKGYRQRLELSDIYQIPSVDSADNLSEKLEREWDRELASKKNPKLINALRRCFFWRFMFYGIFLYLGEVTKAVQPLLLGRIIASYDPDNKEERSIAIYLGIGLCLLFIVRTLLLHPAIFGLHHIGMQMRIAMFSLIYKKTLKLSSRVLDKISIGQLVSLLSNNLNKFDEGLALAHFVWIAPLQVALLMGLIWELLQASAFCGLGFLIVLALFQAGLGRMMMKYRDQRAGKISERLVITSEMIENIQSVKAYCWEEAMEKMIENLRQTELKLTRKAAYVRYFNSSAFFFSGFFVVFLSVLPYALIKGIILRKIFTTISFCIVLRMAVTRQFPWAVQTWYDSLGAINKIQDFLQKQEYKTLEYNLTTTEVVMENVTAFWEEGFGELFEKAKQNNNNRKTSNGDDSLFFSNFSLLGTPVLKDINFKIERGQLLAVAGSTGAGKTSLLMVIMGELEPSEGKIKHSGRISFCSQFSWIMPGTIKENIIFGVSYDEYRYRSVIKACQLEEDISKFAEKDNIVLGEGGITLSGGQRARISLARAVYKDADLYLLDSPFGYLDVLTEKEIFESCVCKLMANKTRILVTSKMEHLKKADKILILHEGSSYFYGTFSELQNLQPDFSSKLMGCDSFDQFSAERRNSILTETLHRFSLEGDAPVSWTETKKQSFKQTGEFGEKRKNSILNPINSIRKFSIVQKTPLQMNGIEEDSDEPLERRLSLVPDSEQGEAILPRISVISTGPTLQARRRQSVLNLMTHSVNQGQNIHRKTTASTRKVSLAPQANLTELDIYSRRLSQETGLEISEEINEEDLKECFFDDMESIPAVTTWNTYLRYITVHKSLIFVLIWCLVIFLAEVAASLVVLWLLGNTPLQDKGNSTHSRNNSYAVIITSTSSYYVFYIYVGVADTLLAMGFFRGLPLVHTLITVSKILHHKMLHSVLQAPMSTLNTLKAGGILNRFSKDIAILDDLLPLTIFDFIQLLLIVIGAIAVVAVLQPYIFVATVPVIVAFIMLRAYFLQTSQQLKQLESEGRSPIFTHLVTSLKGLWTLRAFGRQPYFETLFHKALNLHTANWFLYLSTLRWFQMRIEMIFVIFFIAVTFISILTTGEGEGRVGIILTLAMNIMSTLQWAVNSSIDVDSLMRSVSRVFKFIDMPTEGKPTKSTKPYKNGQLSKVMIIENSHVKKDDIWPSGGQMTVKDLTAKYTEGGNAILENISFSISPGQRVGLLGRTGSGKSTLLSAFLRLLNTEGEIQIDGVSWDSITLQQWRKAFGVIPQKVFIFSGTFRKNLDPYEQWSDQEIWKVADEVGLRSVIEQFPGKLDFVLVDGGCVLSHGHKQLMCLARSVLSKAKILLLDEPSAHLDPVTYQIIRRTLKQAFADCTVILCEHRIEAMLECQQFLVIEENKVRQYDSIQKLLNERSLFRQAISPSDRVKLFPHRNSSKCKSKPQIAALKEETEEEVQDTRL

EC50	Compound
< 0.2 µM	CCCOc1ccc(NC(=O)c2cc3nccc(-c4ccc(OC)c(OC)c4)n3n2)cc1 [Compound 230, 7-(3,4-dimethoxyphenyl)-N-(4-propoxyphenyl)pyrazolo [1,5-a]pyrimidine-2-carboxamide]
≥ 2 µM	COc1ccc(-c2ccnc3cc(C(=O)N4CCc5cc(C(=O)O)ccc54)nn23)cc1OC [Compound 231, 1-(7-(3,4-dimethoxyphenyl)pyrazolo[1,5-a]pyrimidine-2-carbonyl) indoline-5-carboxylic acid]
≥ 2 µM	COc1ccc(-c2ccnc3cc(C(=O)N4CCc5ccc(C(=O)O)cc54)nn23)cc1OC [Compound 232, 1-(7-(3,4-dimethoxyphenyl)pyrazolo[1,5-a]pyrimidine-2-carbonyl) indoline-6-carboxylic acid]
≥ 2 µM	COc1ccc(-c2ccnc3cc(C(=O)N4CCCc5cc(C(=O)O)ccc54)nn23)cc1OC [Compound 233, 1-(7-(3,4-dimethoxyphenyl)pyrazolo[1,5-a]pyrimidine-2-carbonyl)-1,2,3,4-tetrahydroquinoline-6-carboxylic acid]
≥ 2 µM	COc1ccc(-c2ccnc3cc(C(=O)N(C)c4ccc(C(=O)O)cc4)nn23)cc1OC [Compound 234, 4-(7-(3,4-dimethoxyphenyl)-N-methylpyrazolo[1,5-a]pyrimidine-2-carboxamido)benzoic acid]
≥ 2 µM	COc1ccc(-c2ccnc3cc(C(=O)N4CCCc5cc(C(=O)N6CCN(C)CC6)ccc54)nn23)cc1OC [Compound 235, (7-(3,4-dimethoxyphenyl)pyrazolo[1,5-a]pyrimidin-2-yl)(6-(4-methylpiperazine-1-carbonyl)-3,4-dihydroquinolin-1(2H)-yl)methanone]
≥ 2 µM	COc1ccc(-c2ccnc3cc(C(=O)N4CCCc5cc(C(=O)N6CCOCC6)ccc54)nn23)cc1OC [Compound 236, (7-(3,4-dimethoxyphenyl)pyrazolo[1,5-a]pyrimidin-2-yl)(6-(morpholine-4-carbonyl)-3,4-dihydroquinolin-1(2H)-yl)methanone]
≥ 2 µM	COc1ccc(-c2ccnc3cc(C(=O)N4CCc5ccc(C(=O)N6CCN(C)CC6)cc5C4)nn23)cc1OC [Compound 237, (7-(3,4-dimethoxyphenyl)pyrazolo[1,5-a]pyrimidin-2-yl)(7-(4-methylpiperazine-1-carbonyl)-3,4-dihyroisoquinolin-2(1H)-yl)methanone]
≥ 2 µM	COc1ccc(-c2ccnc3cc(C(=O)N4CCc5ccc(C(=O)N6CCOCC6)cc5C4)nn23)cc1OC [Compound 238, (7-(3,4-dimethoxyphenyl)pyrazolo[1,5-a]pyrimidin-2-yl)(7-(morpholine-4-carbonyl)-3,4-dihydroisoquinolin-2(1H)-yl)methanone]
≥ 2 µM	COc1ccc(-c2ccnc3cc(C(=O)N[C@H]4CC[C@@H](C(=O)N5CCN(C)CC5)CC4)nn23)cc1OC [Compound 240, 7-(3,4-dimethoxyphenyl)-N-((1S,4S)-4-(4-methylpiperazine-1-carbonyl)cyclohexyl) pyrazolo[1,5-a]pyrimidine-2-carboxamide]
≥ 2 µM	COc1ccc(-c2ccnc3cc(C(=O)N[C@H]4CC[C@H](C(=O)N5CCN(C)CC5)CC4)nn23)cc1OC [Compound 241, 7-(3,4-dimethoxyphenyl)-N-((1r,4r)-4-(4-methylpiperazine-1-carbonyl)cyclohexyl) pyrazolo[1,5-a]pyrimidine-2-carboxamide]
< 0.2 µM	COc1ccc(-c2ccnc3cc(C(=O)Nc4ccc(C(=O)OCCN5CCOCC5)cn4)nn23)cc1OC [Compound 242, 2-morpholinoethyl 6-(7-(3,4-dimethoxyphenyl)pyrazolo [1,5-a]pyrimidine-2-carboxamido)nicotinate]
0.2 to 2 µM	COc1ccc(-c2ccnc3cc(C(=O)Nc4ccc(CN5CCN(C)CC5)cc4)nn23)cc1OC [Compound 243, 7-(3,4-dimethoxyphenyl)-N-(4-((4-methylpiperazin-1-yl)methyl)phenyl)pyrazolo [1,5-a]pyrimidine-2-carboxamide]
< 0.2 µM	COc1ccc(-c2ccnc3cc(C(=O)Nc4ccc(CN5CCOCC5)cc4)nn23)cc1OC [Compound 244, 7-(3,4-dimethoxyphenyl)-N-(4-(morpholinomethyl)phenyl) pyrazolo[1,5-a]pyrimidine-2-carboxamide]
≥ 2 µM	COc1ccc(-c2ccnc3cc(C(=O)NCc4ccc(N5CCN(C)CC5)cc4)nn23)cc1OC [Compound 245, 7-(3,4-dimethoxyphenyl)-N-(4-(4-methylpiperazin-1-yl)benzyl)pyrazolo[1,5-a]pyrimidine-2-carboxamide]
0.2 to 2 µM	COc1ccc(-c2ccnc3cc(C(=O)NCc4ccc(N5CCOCC5)cc4)nn23)cc1OC [Compound 246, 7-(3,4-dimethoxyphenyl)-N-(4-morpholinobenzyl)pyrazolo [1,5-a]pyrimidine-2-carboxamide]
0.2 to 2 µM	COc1ccc(-c2ccnc3cc(C(=O)N[C@H]4CC[C@@H](C(=O)OCc5ccccn5)CC4)nn23)cc1OC [Compound 247, pyridin-2-ylmethyl (1S,4S)-4-(7-(3,4-dimethoxyphenyl)pyrazolo [1,5-a]pyrimidine-2-carboxamido)cyclohexane-1-carboxylate]
≥ 2 µM	COc1ccc(-c2ccnc3cc(C(=O)N(C)c4ccc(C(=O)N5CCN(C)CC5)cc4)nn23)cc1OC [Compound 248, 7-(3,4-dimethoxyphenyl)-N-methyl-N-(4-(4-methylpiperazine-1-carbonyl)phenyl)pyrazolo [1,5-a]pyrimidine-2-carboxamide]
≥ 2 µM	COc1ccc(-c2ccnc3cc(C(=O)N(C)c4ccc(C(=O)N5CCOCC5)cc4)nn23)cc1OC [Compound 249, 7-(3,4-dimethoxyphenyl)-N-methyl-N-(4-(morpholine-4-carbonyl)phenyl)pyrazolo[1,5-a]pyrimidine-2-carboxamide]
0.2 to 2 µM	COc1ccc(-c2ccnc3cc(C(=O)N4CCc5cc(C(=O)N6CCN(C)CC6)ccc54)nn23)cc1OC [Compound 250, (7-(3,4-dimethoxyphenyl)pyrazolo[1,5-a]pyrimidin-2-yl)(5-(4-methylpiperazine-1-carbonyl)indolin-1-yl) methanone]
0.2 to 2 µM	COc1ccc(-c2ccnc3cc(C(=O)N4CCc5cc(C(=O)N6CCOCC6)ccc54)nn23)cc1OC [Compound 251, (7-(3,4-dimethoxyphenyl)pyrazolo[1,5-a]pyrimidin-2-yl)(5-(morpholine-4-carbonyl)indolin-1-yl) methanone]
≥ 2 µM	COc1ccc(-c2ccnc3cc(C(=O)N4CCc5ccc(C(=O)N6CCN(C)CC6)cc54)nn23)cc1OC [Compound 252, (7-(3,4-dimethoxyphenyl)pyrazolo[1,5-a]pyrimidin-2-yl)(6-(4-methylpiperazine-1-carbonyl)indolin-1-yl)methanone]
0.2 to 2 µM	COc1ccc(-c2ccnc3cc(C(=O)N4CCc5ccc(C(=O)N6CCOCC6)cc54)nn23)cc1OC [Compound 253, (7-(3,4-dimethoxyphenyl)pyrazolo[1,5-a]pyrimidin-2-yl)(6-(morpholine-4-carbonyl)indolin-1-yl) methanone]
≥ 2 µM	CCOc1ccc(NC(=O)c2cc3ncc(-c4ccc(OC)c(OC)c4)cn3n2)cc1 [Compound 254, 6-(3,4-dimethoxyphenyl)-N-(4-ethoxyphenyl)pyrazolo[1,5-a]pyrimidine-2-carboxamide]
< 0.2 µM	COc1ccc(-c2ccnc3cc(C(=O)NC45CCC(C(=O)OCCCN6CCOCC6)(CC4)CC5)nn23)cc1OC [Compound 255, 3-morpholinopropyl 4-(7-(3,4-dimethoxyphenyl)pyrazolo [1,5-a]pyrimidine-2-carboxamido)bicyclo[2.2.2] octane-1-carboxylate]
< 0.2 µM	COc1ccc(-c2ccnc3cc(C(=O)Nc4ccc(NC(=O)CN(C)C)cc4)nn23)cc1OC [Compound 258, 7-(3,4-dimethoxyphenyl)-N-(4-(2-(dimethylamino)acetamido)phenyl)pyrazolo[1,5-a]pyrimidine-2-carboxamide]
0.2 to 2 µM	COc1ccc(-c2ccnc3cc(C(=O)N4CCN(C(=O)c5ccccc5Cl)[C@@H](C)C4)nn23)cc1OC [Compound 260, (S)-(4-(2-chlorobenzoyl)-3-methylpiperazin-1-yl) (7-(3,4-dimethoxyphenyl)pyrazolo[1,5-a]pyrimidin-2-yl)methanone]
0.2 to 2 µM	COc1ccc(-c2ccnc3cc(C(=O)N4CCN(C(=O)c5cccc(Cl)c5)[C@@H](C)C4)nn23)cc1OC [Compound 261, (S)-(4-(3-chlorobenzoyl)-3-methylpiperazin-1-yl) (7-(3,4-dimethoxyphenyl)pyrazolo[1,5-a]pyrimidin-2-yl)methanone]
0.2 to 2 µM	COc1ccc(-c2ccnc3cc(C(=O)N4CCN(C(=O)c5ccc(Cl)cc5)[C@@H](C)C4)nn23)cc1OC [Compound 262, (S)-(4-(4-chlorobenzoyl)-3-methylpiperazin-1-yl) (7-(3,4-dimethoxyphenyl)pyrazolo[1,5-a]pyrimidin-2-yl)methanone]
0.2 to 2 µM	COc1ccc(-c2ccnc3cc(C(=O)N4CCN(C(=O)c5cccc(F)c5)[C@@H](C)C4)nn23)cc1OC [Compound 263, (S)-(7-(3,4-dimethoxyphenyl)pyrazolo[1,5-a]pyrimidin-2-yl)(4-(3-fluorobenzoyl)-3-methylpiperazin-1-yl) methanone]

Compound	EC50
COc1ccc(-c2ccnc3cc(C(=O)Nc4ccc(OC(=O)[C@H](C)NC(=O)OC(C)(C)C)cc4)nn23)cc1OC [Compound 228, 4-(7-(3,4-dimethoxyphenyl)pyrazolo[1,5-a]pyrimidine-2-carboxamido) phenyl(tert-butoxycarbonyl)-L-alaninate]	< 0.2 µM
CCCCOc1ccc(NC(=O)c2cc3nccc(-c4ccc(OC)c(OC)c4)n3n2)cc1 [Compound 229, N-(4-butoxyphenyl)-7-(3,4-dimethoxyphenyl)pyrazolo [1,5-a]pyrimidine-2-carboxamide]	< 0.2 µM
